Reference: US8455692B2, “Process for resolution of 1-(3-hydroxyphenyl)-2-methylamino ethanol” (Divi's Laboratories, Ltd., priority 2010, dated 2013)

Assay: Solubility of phenylephrine base in water and methanol (Table 2)
Format: physicochemical
Experimental: One skilled in the art can improvise modifications to the above procedure in several aspects. For example it is possible to use the racemic phenylephrine hydrochloride salt, suspend it in methanol and add the requisite amount of alkali to liberate the free base before adding the R-naproxen to it. Phenylephrine base is not soluble in water but may be rendered soluble at a temperature above 80° and higher dilution but at lower dilution in hot methanol. Suitable combination of solvent, dilution and temperature may be chosen depending on the size of input. (See Table 2 below). R-naproxen may be added as a solution in methanol or as a solid to keep a low solvent ratio enabling better recovery of the salt.

- Solubility (Methanol, 25-30° C., 1 g in 10 mL): Not soluble
- Solubility (Methanol, 25-30° C., 1 g in 30 mL): Not soluble
- Solubility (Methanol, 25-30° C., 1 g in 100 mL): Soluble
- Solubility (Methanol, 60-80° C., 1 g in 10 mL): Not soluble
- Solubility (Methanol, 60-80° C., 1 g in 30 mL): Soluble
- Solubility (Methanol, 60-80° C., 1 g in 100 mL): Soluble
- Solubility (Water, 25-30° C., 1 g in 10 mL): Not soluble
- Solubility (Water, 25-30° C., 1 g in 30 mL): Not soluble
- Solubility (Water, 25-30° C., 1 g in 100 mL): Not soluble
- Solubility (Water, 60-80° C., 1 g in 10 mL): Not soluble
- Solubility (Water, 60-80° C., 1 g in 30 mL): Not soluble
- Solubility (Water, 60-80° C., 1 g in 100 mL): Soluble
- Solubility (Water, 100° C., 1 g in 10 mL): Not soluble
- Solubility (Water, 100° C., 1 g in 30 mL): Soluble
- Solubility (Water, 100° C., 1 g in 100 mL): Soluble
- Solubility in water (water): not soluble
Structure (SMILES): CNCC(O)c1cccc(O)c1 (racemic) [Phenylephrine base, 1-(3-hydroxyphenyl)-2-methylamino ethanol]
